Results taken from publication PMC3791872 (Bioscience Reports, 2013).

How the values were obtained:
[1] = tested on: Wheat Germ Topo I; experiment: Topo I activity inhibition assay; conditions: 1 mM inhibitor added together with Topo I (Figure 3D)
[2] = target: T1, Mcm467 (Saccharomyces cerevisiae, UniProt P30665+P38132+P53091); experiment: Steady-state ATP hydrolysis by Mcm467; type: biochemical; conditions: 1 mM compound, 100 nM hexamer
T1 construct: made in house; host or cells: baculovirus-infected insect cells
T1 sequence (P30665 whole entry): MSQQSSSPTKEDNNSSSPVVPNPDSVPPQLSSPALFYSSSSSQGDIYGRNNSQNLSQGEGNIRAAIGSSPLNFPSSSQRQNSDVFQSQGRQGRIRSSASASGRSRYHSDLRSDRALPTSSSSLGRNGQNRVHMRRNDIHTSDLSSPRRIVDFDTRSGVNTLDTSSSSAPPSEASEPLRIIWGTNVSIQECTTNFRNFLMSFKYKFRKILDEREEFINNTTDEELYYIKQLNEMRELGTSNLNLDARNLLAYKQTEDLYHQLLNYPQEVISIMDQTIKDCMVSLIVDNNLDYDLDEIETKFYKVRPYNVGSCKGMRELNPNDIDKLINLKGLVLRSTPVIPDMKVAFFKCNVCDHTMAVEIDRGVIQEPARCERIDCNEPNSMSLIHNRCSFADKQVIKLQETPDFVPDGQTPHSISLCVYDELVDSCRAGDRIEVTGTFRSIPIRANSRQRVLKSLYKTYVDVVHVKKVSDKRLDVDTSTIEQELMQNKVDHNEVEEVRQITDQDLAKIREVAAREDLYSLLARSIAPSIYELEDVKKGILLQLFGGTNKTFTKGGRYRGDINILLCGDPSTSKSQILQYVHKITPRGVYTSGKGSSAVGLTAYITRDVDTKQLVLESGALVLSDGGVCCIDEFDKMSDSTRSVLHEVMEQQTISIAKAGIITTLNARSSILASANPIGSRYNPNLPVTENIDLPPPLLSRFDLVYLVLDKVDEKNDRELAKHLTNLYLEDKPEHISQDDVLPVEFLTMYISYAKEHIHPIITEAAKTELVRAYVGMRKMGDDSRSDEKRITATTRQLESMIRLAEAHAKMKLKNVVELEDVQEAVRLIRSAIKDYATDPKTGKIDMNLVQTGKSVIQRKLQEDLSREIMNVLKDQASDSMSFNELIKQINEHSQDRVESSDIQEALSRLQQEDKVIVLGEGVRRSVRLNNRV
T1 sequence (P53091 whole entry): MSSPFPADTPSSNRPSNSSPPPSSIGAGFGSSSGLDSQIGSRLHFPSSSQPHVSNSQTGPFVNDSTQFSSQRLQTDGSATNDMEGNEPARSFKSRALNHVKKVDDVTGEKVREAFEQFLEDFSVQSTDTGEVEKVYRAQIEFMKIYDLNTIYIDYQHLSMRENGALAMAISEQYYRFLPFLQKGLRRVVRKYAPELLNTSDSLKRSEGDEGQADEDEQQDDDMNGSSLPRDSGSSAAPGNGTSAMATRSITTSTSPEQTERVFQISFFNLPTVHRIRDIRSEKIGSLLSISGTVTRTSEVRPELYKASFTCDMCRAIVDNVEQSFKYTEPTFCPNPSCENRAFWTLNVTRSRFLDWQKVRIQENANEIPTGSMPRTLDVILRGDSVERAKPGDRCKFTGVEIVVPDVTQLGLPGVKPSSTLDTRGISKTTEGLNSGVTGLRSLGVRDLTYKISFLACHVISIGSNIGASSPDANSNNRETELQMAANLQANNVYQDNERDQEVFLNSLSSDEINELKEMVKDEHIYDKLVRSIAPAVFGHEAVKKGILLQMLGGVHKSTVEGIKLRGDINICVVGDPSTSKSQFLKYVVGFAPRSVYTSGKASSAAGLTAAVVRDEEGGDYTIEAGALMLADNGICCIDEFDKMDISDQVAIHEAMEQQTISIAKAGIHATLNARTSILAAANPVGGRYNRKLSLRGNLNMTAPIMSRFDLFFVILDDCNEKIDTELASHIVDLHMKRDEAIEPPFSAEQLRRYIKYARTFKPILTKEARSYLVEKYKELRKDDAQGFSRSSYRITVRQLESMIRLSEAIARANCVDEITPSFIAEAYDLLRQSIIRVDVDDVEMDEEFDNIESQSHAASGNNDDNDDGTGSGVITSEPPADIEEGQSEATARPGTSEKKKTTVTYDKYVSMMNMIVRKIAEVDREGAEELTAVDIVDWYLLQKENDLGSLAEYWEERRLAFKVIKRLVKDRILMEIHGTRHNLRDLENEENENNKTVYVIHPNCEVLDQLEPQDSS
T1 sequence (P38132 whole entry): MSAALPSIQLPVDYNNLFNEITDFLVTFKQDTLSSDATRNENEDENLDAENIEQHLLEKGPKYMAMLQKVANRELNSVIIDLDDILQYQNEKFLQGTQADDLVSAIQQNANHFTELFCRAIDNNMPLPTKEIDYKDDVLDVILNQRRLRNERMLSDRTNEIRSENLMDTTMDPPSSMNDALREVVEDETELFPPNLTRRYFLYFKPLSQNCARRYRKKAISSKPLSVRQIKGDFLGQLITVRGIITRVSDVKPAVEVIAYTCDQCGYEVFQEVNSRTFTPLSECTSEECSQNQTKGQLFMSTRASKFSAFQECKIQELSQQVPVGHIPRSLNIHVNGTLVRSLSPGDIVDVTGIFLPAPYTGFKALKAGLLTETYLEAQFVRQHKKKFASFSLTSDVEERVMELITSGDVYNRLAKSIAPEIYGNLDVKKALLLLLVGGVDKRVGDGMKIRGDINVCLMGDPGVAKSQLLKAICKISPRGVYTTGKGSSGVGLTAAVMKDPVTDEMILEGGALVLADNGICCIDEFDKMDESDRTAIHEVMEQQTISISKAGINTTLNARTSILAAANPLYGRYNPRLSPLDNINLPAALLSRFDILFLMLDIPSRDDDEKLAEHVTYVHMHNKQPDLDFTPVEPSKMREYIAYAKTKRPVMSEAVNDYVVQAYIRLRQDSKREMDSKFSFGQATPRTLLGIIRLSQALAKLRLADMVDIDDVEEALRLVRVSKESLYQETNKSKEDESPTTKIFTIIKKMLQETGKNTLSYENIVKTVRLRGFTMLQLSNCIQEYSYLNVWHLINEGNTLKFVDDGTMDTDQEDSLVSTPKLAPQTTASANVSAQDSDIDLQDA

[3] = target: SV40 large TAg (T-antigen) (Simian virus 40, UniProt P03070); experiment: biochemical; design: species or system SV40 (simian virus 40); conditions: DNA unwinding, 100 nM hexamer, inhibitor preincubation; […]; read-out: IC50 T-antigen
Chain of SV40 large TAg (T-antigen) (P03070 whole entry, looked up): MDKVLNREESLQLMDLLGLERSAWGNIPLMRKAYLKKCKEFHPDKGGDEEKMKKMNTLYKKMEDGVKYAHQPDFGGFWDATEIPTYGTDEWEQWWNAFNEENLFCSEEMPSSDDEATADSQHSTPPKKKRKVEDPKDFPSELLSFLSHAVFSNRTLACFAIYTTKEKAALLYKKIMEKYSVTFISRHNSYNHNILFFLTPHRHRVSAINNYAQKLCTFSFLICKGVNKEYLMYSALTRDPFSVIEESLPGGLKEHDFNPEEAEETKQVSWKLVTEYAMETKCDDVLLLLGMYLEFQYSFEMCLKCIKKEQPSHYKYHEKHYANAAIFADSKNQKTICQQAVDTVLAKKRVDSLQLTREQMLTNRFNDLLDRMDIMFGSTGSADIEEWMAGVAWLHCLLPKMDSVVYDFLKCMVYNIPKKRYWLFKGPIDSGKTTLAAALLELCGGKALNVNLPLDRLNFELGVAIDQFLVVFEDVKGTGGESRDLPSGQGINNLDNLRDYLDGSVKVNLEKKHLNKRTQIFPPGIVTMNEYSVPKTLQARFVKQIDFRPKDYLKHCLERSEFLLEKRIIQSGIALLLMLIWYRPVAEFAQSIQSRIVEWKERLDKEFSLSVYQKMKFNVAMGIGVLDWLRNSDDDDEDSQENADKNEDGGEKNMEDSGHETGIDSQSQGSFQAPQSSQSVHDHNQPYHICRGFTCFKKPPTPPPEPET

[4] = target: T2, Mcm2-7; experiment: Mcm2-7 helicase (DNA unwinding) assay; type: biochemical, Saccharomyces cerevisiae; conditions: DNA unwinding, 100 nM hexamer, inhibitor preincubation; value (95% CI); read-out: IC50 Mcm2-7
T2 construct: made in house; host or cells: baculovirus-infected insect cells

[5] = target: T1, Mcm467; experiment: Mcm467 helicase (DNA unwinding) assay; type: biochemical; conditions: DNA unwinding, 100 nM hexamer, inhibitor preincubation; value (95% CI); read-out: IC50 Mcm467
[6] = tested on: pUC19; experiment: DNA intercalation assay (Topo I-relaxed plasmid); type: biochemical; conditions: 1 mM inhibitor added after plasmid relaxation (Figure 3C)
Description: To examine this model, we tested our inhibitors in a standard topoisomerase assay. The rationale of this assay is that intercalating compounds will introduce supercoils into a fully relaxed plasmid. Topo I will remove these introduced supercoils, but after quenching and gel electrophoresis the intercalator will diffuse away and produce a detectable compensatory supercoiling increase.

[7] = tested on: T2, Mcm2-7; experiment: ssDNA double filter-binding assay, Mcm2-7; design: species or system Saccharomyces cerevisiae; conditions: 1 mM compound, 150 nM helicase
[8] = target: T3, SV40 large TAg (Simian virus 40, UniProt P03070); experiment: Steady-state ATP hydrolysis by TAg; type: biochemical, SV40 (simian virus 40); conditions: 1 mM compound, 100 nM hexamer
T3 construct: made in house
T3 sequence (P03070 whole entry): as the sequence (P03070 whole entry, looked up) above

[9] = target: T1, Mcm467; experiment: ssDNA double filter-binding assay, Mcm467; conditions: 1 mM compound, 150 nM helicase
[10] = tested on: T2, Mcm2-7; experiment: Steady-state ATP hydrolysis by Mcm2-7; type: biochemical, Saccharomyces cerevisiae; conditions: 1 mM compound, 100 nM hexamer
[11] = tested on: S. cerevisiae ∆erg6 (UPY675); experiment: Yeast growth inhibition, 96-well assay, ∆erg6 strain; type: cell-based, Saccharomyces cerevisiae; conditions: Saccharomyces cerevisiae, 24 h, read-out: IC50 Yeast
[12] = Solubility in assay; conditions: helicase assay conditions

SMILES	Topo I inhibition [1]	effect on ATP hydrolysis of Mcm467 [2]	IC50 [3] [µM]	IC50 [4] [µM]	IC50 [5] [µM]	DNA intercalation [6]	effect on ssDNA binding of Mcm2-7 [7]	effect on ATP hydrolysis of TAg [8]	effect on ssDNA binding of Mcm467 [9]	effect on ATP hydrolysis of Mcm2-7 [10]	IC50 [11] [µM]	solubility [12]
CC1=C(C(=O)OCc2ccccc2)C(c2ccc(-c3ccccc3)cc2)NC(=O)N1CCCCCC(=O)O (stereo not shown) [MAL2-11b, reference compound]	Topo I inhibitor	completely inhibits	192	96	112	little or no intercalation	inhibit	completely inhibits	inhibit	completely inhibits	–	–
CCn1cc(C(=O)O)c(=O)c2c(N)c(F)c(N3CCNCC3)c(F)c21 [compound 271327]	–	essentially no inhibition	> 1000	361	460	little or no intercalation	–	essentially no inhibition	–	essentially no inhibition	700	limited solubility
